These compounds were tested against human ACMSD (Homo sapiens (Human), UniProt Q8TDX5) (assay: Human ACMSD-1 inhibitor assay (coupled 3-HAO/ACMSD, absorbance at 360 nm)). Conditions: read-out: hACMSD IC50; human ACMSD 6 μg/ml, 50 mM MES pH 6.0, 28° C., four-parameter dose-response fit.
human ACMSD, sequence (Q8TDX5 whole entry): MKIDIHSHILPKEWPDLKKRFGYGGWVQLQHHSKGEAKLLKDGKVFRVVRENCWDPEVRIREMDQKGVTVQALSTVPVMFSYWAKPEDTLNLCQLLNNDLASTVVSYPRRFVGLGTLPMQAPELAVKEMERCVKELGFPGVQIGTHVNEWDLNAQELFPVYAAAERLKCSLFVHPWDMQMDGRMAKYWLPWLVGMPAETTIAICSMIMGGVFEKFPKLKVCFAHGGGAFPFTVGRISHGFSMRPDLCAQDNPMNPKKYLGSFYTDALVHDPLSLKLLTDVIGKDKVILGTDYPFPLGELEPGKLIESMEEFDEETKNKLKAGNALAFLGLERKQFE

IC50 [nM] | Compound
9 | N#Cc1c(C(F)(F)F)cc(=O)[nH]c1SC(F)C(=O)O (centres unmarked) [Ex. 27, 2-(3-cyano-6-oxo-4-(trifluoromethyl)-1,6-dihydropyridin-2-ylthio)-2-fluoroacetic acid]
4 | N#Cc1c(C(F)(F)F)cc(=O)[nH]c1SCc1cc(-c2nnn[nH]2)ccc1Cl [Ex. 45, 2-(2-chloro-5-(1H-tetrazol-5-yl)benzylthio)-6-oxo-4-(trifluoromethyl)-1,6-dihydropyridine-3-carbonitrile]
7 | N#Cc1c(-c2cccs2)cc(=O)[nH]c1SCc1cccc(C(=O)O)c1 [Ex. 23, 3-(((3-cyano-6-oxo-4-(thiophen-2-yl)-1,6-dihydropyridin-2-yl)thio)methyl)benzoic acid]
3 | N#Cc1c(SCc2cccc(C(=O)O)c2)[nH]c(=O)c(Cl)c1-c1ccccc1 [Ex. 41, 3-(((5-chloro-3-cyano-6-oxo-4-phenyl-1,6-dihydropyridin-2-yl)thio)methyl)benzoic acid]
530 | COc1ccc(C(=O)O)cc1CSc1[nH]c(=O)cc(C(F)(F)F)c1C#N [Ex. 16, 3-(((3-cyano-6-oxo-4-(trifluoromethyl)-1,6-dihydropyridin-2-yl)thio)methyl)-4-methoxybenzoic acid]
752 | N#Cc1c(C(F)(F)F)cc(=O)[nH]c1SCCC(=O)O [Ex. 2, 3-(3-cyano-6-oxo-4-(trifluoromethyl)-1,6-dihydropyridin-2-ylthio)propanoic acid]
3 | Cc1cccc(-c2cc(=O)[nH]c(SCc3cccc(-c4nnn[nH]4)c3)c2C#N)c1 [Ex. 55, 2-((3-(1H-tetrazol-5-yl)benzyl)thio)-6-oxo-4-(m-tolyl)-1,6-dihydropyridine-3-carbonitrile]
470 | N#Cc1c(C2CCCCC2)cc(=O)[nH]c1SCc1cccc(C(=O)O)c1 [Ex. 24, 3-(((3-cyano-4-cyclohexyl-6-oxo-1,6-dihydropyridin-2-yl)thio)methyl)benzoic acid]
200 | N#Cc1c(CC2CCCCC2)cc(=O)[nH]c1SCc1cccc(C(=O)O)c1 [Ex. 35, 3-(((3-cyano-4-(cyclohexylmethyl)-6-oxo-1,6-dihydropyridin-2-yl)thio)methyl)benzoic acid]
6 | N#Cc1c(-c2cccs2)cc(=O)[nH]c1SCc1cccc(-c2nnn[nH]2)c1 [Ex. 49, 2-((3-(1H-tetrazol-5-yl)benzyl)thio)-6-oxo-4-(thiophen-2-yl)-1,6-dihydropyridine-3-carbonitrile]
3 | N#Cc1c(-c2ccccc2)cc(=O)[nH]c1SCc1cccc(-c2nnn[nH]2)c1 [Ex. 50, 2-((3-(1H-tetrazol-5-yl)benzyl)thio)-6-oxo-4-phenyl-1,6-dihydropyridine-3-carbonitrile]
29 | N#Cc1c(-c2ccncc2)cc(=O)[nH]c1SCc1cccc(C(=O)O)c1 [Ex. 26, 3-(((3-cyano-6-oxo-1,6-dihydro-[4,4′-bipyridin]-2-yl)thio)methyl)benzoic acid]
230 | N#Cc1c(C(F)(F)F)cc(=O)[nH]c1SCc1cc(C(=O)O)ccc1F [Ex. 19, 3-((3-cyano-6-oxo-4-(trifluoromethyl)-1,6-dihydropyridin-2-ylthio)methyl)-4-fluorobenzoic acid]
130 | O=c1cc(C(F)(F)F)cc(SCc2nnn[nH]2)[nH]1 [Ex. 52, 6-((1H-tetrazol-5-yl)methylthio)-4-(trifluoromethyl)pyridin-2(1H)-one]

Compound | IC50 [nM]
N#Cc1c(C(F)(F)F)cc(=O)[nH]c1SCc1cccc(-c2nnn[nH]2)c1 [Ex. 42, 2-(3-(1H-tetrazol-5-yl)benzylthio)-6-oxo-4-(trifluoromethyl)-1,6-dihydropyridine-3-carbonitrile] | 32
N#Cc1c(SCC(=O)O)[nH]c(=O)c(F)c1C(F)(F)F [Ex. 17, 2-(3-cyano-5-fluoro-6-oxo-4-(trifluoromethyl)-1,6-dihydropyridin-2-ylthio)acetic acid] | 9
N#Cc1c(Cc2ccccc2)cc(=O)[nH]c1SCC(=O)O [Ex. 18, 2-((4-benzyl-3-cyano-6-oxo-1,6-dihydropyridin-2-yl)thio)acetic acid] | 36
COc1c(C(F)(F)F)c(C#N)c(SCC(=O)O)[nH]c1=O [Ex. 46, 2-(3-cyano-5-methoxy-6-oxo-4-(trifluoromethyl)-1,6-dihydropyridin-2-ylthio)acetic acid] | 8
N#Cc1c(C(F)(F)F)cc(=O)[nH]c1SCC(=O)O [Ex. 1, 2-((3-cyano-6-oxo-4-(trifluoromethyl)-1,6-dihydropyridin-2-yl)thio)acetic acid] | 6
N#Cc1c(C(F)(F)F)cc(=O)[nH]c1SCc1nnn[nH]1 [Ex. 43, 2-(((1H-tetrazol-5-yl)methyl)thio)-6-oxo-4-(trifluoromethyl)-1,6-dihydropyridine-3-carbonitrile] | 4
Cc1cc(=O)[nH]c(SCc2cccc(C(=O)O)c2)c1C#N [Ex. 56, 3-(((3-cyano-4-methyl-6-oxo-1,6-dihydropyridin-2-yl)thio)methyl)benzoic acid] | 6750
CC(Sc1[nH]c(=O)cc(C(F)(F)F)c1C#N)C(=O)O (centres unmarked) [Ex. 7, 2-(3-cyano-6-oxo-4-(trifluoromethyl)-1,6-dihydropyridin-2-ylthio)propanoic acid] | 271
N#Cc1c(-c2ccsc2)cc(=O)[nH]c1SCc1cccc(C(=O)O)c1 [Ex. 36, 3-((3-cyano-6-oxo-4-(thiophen-3-yl)-1,6-dihydropyridin-2-ylthio)methyl)benzoic acid] | 160
